Holding throughout (type): biochemical
In one assay the target is T1, SYK (Homo sapiens, UniProt P43405).
T1 construct: purchased Reaction Biology Corp. (Kinase HotSpot service)
Put plainly: Reaction Biology Kinase HotSpot radiometric kinase assay.

For the next assay, the target named is T2, AXL (Homo sapiens, UniProt P30530).
T2 construct: purchased Reaction Biology Corp. (Kinase HotSpot service)
The assay is described as above.

Another assay deals with T3, FLT3 (Homo sapiens, UniProt P36888).
T3 construct: purchased Reaction Biology Corp. (Kinase HotSpot service)
T3 sequence (P36888 27-993): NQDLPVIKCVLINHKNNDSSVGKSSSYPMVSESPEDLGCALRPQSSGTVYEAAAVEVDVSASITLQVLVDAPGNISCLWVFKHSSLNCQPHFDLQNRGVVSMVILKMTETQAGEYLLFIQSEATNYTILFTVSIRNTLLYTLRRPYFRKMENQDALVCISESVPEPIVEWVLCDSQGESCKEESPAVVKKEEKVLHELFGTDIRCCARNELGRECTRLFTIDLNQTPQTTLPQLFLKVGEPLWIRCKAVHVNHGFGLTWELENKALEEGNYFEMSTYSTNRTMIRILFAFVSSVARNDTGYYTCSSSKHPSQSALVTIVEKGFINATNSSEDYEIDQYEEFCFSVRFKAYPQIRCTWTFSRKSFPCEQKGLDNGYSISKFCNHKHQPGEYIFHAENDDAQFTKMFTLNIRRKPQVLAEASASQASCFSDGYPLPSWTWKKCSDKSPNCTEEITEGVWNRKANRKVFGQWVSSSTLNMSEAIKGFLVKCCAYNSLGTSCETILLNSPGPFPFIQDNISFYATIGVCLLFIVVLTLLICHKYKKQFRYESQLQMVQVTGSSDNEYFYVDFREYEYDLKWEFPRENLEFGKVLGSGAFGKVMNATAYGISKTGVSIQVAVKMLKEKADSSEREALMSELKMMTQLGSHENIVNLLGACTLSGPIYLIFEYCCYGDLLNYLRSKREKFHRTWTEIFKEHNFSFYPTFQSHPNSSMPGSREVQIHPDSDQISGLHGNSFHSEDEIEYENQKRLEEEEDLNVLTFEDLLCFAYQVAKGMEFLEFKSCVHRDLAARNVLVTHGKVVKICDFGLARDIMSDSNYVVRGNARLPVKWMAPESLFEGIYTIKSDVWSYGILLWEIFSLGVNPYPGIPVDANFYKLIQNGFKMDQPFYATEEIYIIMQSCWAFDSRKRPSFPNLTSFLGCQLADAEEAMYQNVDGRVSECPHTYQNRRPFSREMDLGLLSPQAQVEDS
Described as above.

A further assay has as its target T4, ROS/ROS1 (Homo sapiens, UniProt P08922).
T4 construct: purchased Reaction Biology Corp. (Kinase HotSpot service)
The assay is described as above.

The next assay has as its target T5, FLT3 (D835Y) (Homo sapiens, UniProt P36888, D835Y).
T5 construct: purchased Reaction Biology Corp. (Kinase HotSpot service)
T5 sequence (P36888 27-993 D835Y): T3 sequence (P36888 27-993) with D809Y
Description: Enzymatic activity against FLT3 mutants.

Assay [1] has as its target T6, FLT3 (Y591_V592 ins VDFREYEYD) (Homo sapiens, UniProt P36888, INS591VDFREYEYD).
T6 construct: purchased Reaction Biology Corp. (Kinase HotSpot service)
Put plainly: Enzymatic activity against FLT3 mutants.

A further assay deals with T7, FLT3 (F594_R595 ins R) (Homo sapiens, UniProt P36888, INS594R).
T7 construct: purchased Reaction Biology Corp. (Kinase HotSpot service)
Description: Enzymatic activity against FLT3 mutants.

For another assay, the target named is T8, KDR/VEGFR2 (Homo sapiens, UniProt P35968).
T8 construct: purchased Reaction Biology Corp. (Kinase HotSpot service)
Description: Reaction Biology Kinase HotSpot radiometric kinase assay.

The target in the next assay is P38a/MAPK14 (Homo sapiens, UniProt Q16539). Described as above.
Another assay addresses T9, c-Src (Homo sapiens, UniProt P12931).
T9 construct: purchased Reaction Biology Corp. (Kinase HotSpot service)
The description is as above.

A further assay addresses T10, c-Kit (Homo sapiens, UniProt P10721).
T10 construct: purchased Reaction Biology Corp. (Kinase HotSpot service)
The description is as above.

A further assay concerns the target T11, PLK1 (Homo sapiens, UniProt P53350).
T11 construct: purchased Reaction Biology Corp. (Kinase HotSpot service)
Described as above.

For another assay, the target named is T12, AKT1 (Homo sapiens, UniProt P31749).
T12 construct: purchased Reaction Biology Corp. (Kinase HotSpot service)
The assay is described as above.

The target in a further assay is T13, FMS (Homo sapiens, UniProt P07333).
T13 construct: purchased Reaction Biology Corp. (Kinase HotSpot service)
The description is as above.

The next assay concerns the target T14, EGFR (Homo sapiens, UniProt P00533).
T14 construct: purchased Reaction Biology Corp. (Kinase HotSpot service)
The description is as above.

For the next assay, the target named is T15, BRAF (V599E) (Homo sapiens, UniProt P15056, V600E).
T15 construct: purchased Reaction Biology Corp. (Kinase HotSpot service)
Described as above.

The target in another assay is T16, ABL1 (Homo sapiens, UniProt P00519).
T16 construct: purchased Reaction Biology Corp. (Kinase HotSpot service)
The description is as above.

Where a chain is given by its changes, count along the chain named. “Also recorded” adds a separate entry of the source.

Here are results for one compound from article PMC7241567 (Journal of Enzyme Inhibition and Medicinal Chemistry, 2020).

T2 sequence (P30530 26-894): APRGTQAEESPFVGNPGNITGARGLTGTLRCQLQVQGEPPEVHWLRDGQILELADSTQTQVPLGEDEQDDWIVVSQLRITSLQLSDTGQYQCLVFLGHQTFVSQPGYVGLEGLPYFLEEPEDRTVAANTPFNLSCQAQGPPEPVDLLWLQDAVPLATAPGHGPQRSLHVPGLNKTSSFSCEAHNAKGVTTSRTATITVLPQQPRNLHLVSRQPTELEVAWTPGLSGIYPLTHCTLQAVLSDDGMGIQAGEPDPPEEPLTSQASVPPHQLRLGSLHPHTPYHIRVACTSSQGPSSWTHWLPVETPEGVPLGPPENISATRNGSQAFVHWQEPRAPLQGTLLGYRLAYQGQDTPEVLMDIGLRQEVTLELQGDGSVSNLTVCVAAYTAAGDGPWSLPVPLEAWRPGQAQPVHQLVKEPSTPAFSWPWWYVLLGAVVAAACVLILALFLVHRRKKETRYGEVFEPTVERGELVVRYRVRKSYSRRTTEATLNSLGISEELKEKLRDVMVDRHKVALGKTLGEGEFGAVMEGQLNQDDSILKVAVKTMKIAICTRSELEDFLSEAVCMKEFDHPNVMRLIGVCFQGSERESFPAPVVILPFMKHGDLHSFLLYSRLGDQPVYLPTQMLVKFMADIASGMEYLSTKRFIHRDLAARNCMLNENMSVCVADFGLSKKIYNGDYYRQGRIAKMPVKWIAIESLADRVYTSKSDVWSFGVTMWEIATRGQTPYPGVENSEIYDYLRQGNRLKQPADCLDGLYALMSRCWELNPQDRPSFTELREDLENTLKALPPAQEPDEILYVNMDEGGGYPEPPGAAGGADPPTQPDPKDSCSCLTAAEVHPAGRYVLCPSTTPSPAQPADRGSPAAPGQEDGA
T10 sequence (P10721 26-976): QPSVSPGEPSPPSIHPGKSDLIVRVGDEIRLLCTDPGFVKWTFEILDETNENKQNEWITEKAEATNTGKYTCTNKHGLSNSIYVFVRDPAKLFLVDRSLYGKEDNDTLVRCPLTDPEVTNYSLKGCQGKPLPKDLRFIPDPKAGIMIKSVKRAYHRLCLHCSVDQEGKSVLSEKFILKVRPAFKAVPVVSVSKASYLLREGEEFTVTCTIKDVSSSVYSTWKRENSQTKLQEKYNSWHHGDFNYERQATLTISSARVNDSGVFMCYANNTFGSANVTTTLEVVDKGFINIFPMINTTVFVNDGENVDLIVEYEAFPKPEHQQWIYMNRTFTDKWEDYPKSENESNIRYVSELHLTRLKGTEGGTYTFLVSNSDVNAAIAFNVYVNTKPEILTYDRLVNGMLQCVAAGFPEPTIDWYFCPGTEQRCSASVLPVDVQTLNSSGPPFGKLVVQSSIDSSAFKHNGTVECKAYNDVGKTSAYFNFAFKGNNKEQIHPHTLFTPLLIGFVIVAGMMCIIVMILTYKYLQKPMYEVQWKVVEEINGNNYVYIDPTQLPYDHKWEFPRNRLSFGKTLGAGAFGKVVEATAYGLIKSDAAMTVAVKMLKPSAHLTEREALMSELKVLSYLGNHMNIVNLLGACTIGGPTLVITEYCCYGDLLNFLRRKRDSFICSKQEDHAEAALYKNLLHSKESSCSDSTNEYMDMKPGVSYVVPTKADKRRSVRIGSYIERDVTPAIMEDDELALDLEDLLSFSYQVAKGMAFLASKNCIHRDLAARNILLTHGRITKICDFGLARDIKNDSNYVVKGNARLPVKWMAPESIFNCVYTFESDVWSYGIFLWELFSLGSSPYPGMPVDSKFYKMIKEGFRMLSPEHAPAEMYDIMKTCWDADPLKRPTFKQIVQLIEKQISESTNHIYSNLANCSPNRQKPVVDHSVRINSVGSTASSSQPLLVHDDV
T4 sequence (P08922 28-2347): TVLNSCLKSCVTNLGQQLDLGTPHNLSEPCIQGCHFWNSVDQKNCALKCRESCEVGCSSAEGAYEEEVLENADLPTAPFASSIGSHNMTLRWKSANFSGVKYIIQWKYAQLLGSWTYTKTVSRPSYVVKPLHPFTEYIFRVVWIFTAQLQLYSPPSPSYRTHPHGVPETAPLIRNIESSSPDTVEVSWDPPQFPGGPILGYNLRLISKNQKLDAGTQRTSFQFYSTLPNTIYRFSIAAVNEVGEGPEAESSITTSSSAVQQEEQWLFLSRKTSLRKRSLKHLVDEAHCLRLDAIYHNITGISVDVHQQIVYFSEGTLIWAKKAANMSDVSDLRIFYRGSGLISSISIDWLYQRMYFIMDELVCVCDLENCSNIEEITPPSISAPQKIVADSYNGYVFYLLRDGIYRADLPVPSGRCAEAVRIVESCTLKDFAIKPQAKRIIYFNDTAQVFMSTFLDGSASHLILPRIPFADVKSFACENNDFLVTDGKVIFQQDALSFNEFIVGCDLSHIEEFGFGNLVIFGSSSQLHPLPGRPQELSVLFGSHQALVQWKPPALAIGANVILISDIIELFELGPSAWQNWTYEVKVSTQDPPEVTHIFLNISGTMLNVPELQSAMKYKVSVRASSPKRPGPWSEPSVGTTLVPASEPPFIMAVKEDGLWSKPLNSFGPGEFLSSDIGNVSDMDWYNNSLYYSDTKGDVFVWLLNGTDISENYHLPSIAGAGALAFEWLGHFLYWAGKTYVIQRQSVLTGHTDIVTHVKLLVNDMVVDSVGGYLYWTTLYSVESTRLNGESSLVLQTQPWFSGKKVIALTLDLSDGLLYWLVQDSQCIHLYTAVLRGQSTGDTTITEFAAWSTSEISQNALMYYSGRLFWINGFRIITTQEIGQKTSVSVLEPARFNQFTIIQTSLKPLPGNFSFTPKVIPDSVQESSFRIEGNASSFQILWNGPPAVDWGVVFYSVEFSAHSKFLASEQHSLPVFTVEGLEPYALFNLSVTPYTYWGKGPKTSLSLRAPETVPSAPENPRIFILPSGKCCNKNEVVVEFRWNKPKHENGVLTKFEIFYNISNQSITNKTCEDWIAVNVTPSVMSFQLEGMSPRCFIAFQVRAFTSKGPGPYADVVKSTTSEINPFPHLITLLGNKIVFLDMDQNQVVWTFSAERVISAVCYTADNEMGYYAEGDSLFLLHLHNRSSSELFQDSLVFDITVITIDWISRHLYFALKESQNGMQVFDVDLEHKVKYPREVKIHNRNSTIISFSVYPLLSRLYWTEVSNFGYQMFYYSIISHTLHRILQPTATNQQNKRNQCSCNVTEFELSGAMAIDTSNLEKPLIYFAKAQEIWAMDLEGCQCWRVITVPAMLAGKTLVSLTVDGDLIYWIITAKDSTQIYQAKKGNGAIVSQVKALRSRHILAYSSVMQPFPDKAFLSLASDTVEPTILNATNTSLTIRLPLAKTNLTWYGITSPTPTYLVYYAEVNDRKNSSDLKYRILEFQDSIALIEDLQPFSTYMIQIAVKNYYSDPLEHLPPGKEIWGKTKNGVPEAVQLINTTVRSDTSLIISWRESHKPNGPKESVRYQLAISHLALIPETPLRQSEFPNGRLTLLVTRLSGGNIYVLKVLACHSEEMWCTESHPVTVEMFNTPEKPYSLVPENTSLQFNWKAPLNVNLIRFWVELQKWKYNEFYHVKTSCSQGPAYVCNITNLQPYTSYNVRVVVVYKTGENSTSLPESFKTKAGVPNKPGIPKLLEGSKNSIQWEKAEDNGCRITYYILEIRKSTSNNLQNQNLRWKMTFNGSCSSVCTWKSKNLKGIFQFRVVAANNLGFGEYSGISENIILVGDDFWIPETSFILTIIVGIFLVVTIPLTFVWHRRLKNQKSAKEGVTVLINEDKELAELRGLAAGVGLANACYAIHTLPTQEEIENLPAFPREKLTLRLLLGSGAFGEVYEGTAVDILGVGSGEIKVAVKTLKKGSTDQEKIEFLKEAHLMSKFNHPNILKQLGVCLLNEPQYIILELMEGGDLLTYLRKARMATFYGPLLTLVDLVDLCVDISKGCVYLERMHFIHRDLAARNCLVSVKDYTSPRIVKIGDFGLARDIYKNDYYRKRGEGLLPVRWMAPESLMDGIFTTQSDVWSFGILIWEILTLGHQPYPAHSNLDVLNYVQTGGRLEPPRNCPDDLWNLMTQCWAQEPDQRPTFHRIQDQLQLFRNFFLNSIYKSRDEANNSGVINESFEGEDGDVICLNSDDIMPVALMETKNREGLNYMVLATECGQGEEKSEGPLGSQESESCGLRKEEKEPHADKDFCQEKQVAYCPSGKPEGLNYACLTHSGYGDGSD
P38a/MAPK14, sequence (Q16539 whole entry): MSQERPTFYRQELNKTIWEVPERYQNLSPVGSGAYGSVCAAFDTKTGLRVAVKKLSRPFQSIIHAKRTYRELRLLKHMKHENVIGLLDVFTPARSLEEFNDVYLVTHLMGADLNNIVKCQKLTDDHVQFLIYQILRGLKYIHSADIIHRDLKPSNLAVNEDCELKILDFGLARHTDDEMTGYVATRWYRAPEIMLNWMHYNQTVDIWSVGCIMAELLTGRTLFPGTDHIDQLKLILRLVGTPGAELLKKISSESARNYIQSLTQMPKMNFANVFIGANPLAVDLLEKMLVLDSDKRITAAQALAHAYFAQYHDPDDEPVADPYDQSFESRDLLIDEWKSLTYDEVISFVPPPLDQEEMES
T12 sequence (P31749 whole entry): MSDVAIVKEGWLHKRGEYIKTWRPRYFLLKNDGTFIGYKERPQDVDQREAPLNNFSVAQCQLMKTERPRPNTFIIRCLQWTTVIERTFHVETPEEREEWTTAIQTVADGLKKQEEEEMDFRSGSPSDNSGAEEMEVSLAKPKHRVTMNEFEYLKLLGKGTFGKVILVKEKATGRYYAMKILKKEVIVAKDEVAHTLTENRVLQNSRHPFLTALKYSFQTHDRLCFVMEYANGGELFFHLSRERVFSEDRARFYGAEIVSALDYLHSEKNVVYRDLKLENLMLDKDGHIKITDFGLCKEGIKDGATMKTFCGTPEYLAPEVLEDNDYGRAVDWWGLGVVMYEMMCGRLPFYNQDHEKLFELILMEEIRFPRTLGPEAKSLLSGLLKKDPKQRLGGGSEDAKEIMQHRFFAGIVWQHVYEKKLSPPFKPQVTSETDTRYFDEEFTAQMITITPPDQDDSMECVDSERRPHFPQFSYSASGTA

As usually defined, the inhibition is the relative decrease from the control value, in per cent. Higher therefore signals a strong effect. The IC50 is the concentration needed to halve the response being measured. As for `Cc1oncc1C(=O)Nc1ccc2cnc(-c3cc(N4CCN(C)CC4)cc(C(F)(F)F)c3)nc2c1` [Compound 7d, 5-methyl-N-(2-(3-(4-methylpiperazin-1-yl)-5-(trifluoromethyl)phenyl)quinazolin-7-yl)isoxazole-4-carboxamide], the inhibition at 10 µM against SYK was 22.4%; against AXL, 21.2%; at FLT3, 96.6%; against ROS/ROS1 it was 14.4%; against KDR/VEGFR2 it was 16.8%; on P38a/MAPK14, 0%. In addition, the inhibition at 10 µM was 14.6% on c-Src; 0% on c-Kit; 0% against PLK1; 5.48% at AKT1; 5.49% against FMS; 0% against EGFR. Moreover, the inhibition at 10 µM against BRAF (V599E) was 5.19%; against ABL1 it was 6.46%. Also, the “inhibitory activity towards FLT3 (in words)” value against FLT3 was “maintained the activity; also recorded: maintained inhibitory activity”. For the same compound, the IC50 at FLT3 (FLT3 wild type, read-out: IC50 against FLT3) came out at 106 nM; against FLT3 (D835Y) (FLT3 (D835Y)) it was 228 nM; at FLT3 (D835Y) (FLT3-TKD (D835Y)), 228 nM; in assay [1], 728 nM; on FLT3 (F594_R595 ins R), 524 nM. Moreover, at FLT3 (D835Y), the “decrease of activity against FLT3-TKD (D835Y) compared to FLT3 wild type” value is “about 2 fold”.
